In US20120270237A9, “METHODS FOR THE IDENTIFICATION OF KINASE INTERACTING MOLECULES AND FOR THE PURIFICATION OF KINASE PROTEINS” (Cellzone AG, priority 2009, published 2012) one finds inhibition and Competition % data, which are given here for one compound.

Conditions in all cases: 10 μM free compound
One test has as its target T1, TAO3 (Homo sapiens, UniProt Q9H2K8).
T1 sequence (Q9H2K8 1-898): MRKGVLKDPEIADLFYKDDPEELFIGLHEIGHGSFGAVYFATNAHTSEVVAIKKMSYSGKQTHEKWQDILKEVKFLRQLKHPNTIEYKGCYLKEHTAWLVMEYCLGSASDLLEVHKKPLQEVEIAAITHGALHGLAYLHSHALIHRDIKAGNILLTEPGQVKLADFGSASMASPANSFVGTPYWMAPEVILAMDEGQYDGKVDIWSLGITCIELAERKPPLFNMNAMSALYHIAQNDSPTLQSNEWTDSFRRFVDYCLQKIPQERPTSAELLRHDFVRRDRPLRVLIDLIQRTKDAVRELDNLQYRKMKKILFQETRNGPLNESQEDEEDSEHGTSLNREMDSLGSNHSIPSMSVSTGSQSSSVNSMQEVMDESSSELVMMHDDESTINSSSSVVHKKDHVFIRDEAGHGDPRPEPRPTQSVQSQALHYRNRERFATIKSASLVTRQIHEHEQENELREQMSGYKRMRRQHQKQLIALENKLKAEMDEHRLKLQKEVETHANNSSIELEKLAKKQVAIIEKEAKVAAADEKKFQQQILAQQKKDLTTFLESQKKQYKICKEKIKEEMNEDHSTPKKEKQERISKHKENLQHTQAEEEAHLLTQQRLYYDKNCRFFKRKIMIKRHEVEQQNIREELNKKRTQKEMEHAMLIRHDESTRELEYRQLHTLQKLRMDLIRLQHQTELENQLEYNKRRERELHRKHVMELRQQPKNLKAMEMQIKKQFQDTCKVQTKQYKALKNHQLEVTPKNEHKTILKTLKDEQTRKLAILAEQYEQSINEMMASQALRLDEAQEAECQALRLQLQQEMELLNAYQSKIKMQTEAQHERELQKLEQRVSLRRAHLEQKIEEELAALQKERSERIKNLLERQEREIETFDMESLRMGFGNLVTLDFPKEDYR
In words: Kinobeads competition binding, HL60 cell lysate. On the set-up: endogenous in cells; host or cells: HL60. Here is the method: (§1) To one aliquot of cell lysate 10 μM of the free compound (FIG. 3, CZC31326) was added and allowed to bind to proteins in the lysate. Then the affinity matrix with the immobilized compound (Example 1) was added to capture proteins that were not interacting with the previously added free compound. Beads were separated from the lysate and bead bound proteins were eluted in SDS sample buffer and subsequently separated by SDS-Polyacrylamide gel electrophoresis (FIG. 4). Suitable gel bands were cut out and subjected to in-gel proteolytic digestion with trypsin. The second lysate aliquot was processed identically, however no free compound was added (DMSO solvent control). Peptides originating from samples 1 and 2 were labeled with iTRAQ reagents (iTRAQ 114 and iTRAQ 117) and the combined samples were analyzed with a nano-flow liquid chromatography system coupled online to a tandem mass spectrometer (LC-MS/MS) experiment followed by iTRAQ reporter ion quantification in the MS/MS spectra (Ross et al., 2004. Mol. Cell. Proteomics 3(12):1154-1169). Further experimental protocols can be found in WO2006/134056 and a previous publication (Bantscheff et al., 2007. Nature Biotechnology 25, 1035-1044). Sepharose-beads with the immobilized compound (100 μl beads per pull-down experiment) were equilibrated in lysis buffer and incubated with a cell lysate sample containing 50 mg of protein on an end-over-end shaker (Roto Shake Genie, Scientific Industries Inc.) for 2 hours at 4° C. Beads were collected, transferred to Mobicol-columns (MoBiTech 10055) and washed with 10 ml lysis buffer containing 0.4% NP40 detergent, followed by 5 ml lysis buffer containing 0.2% detergent. To elute bound proteins, 60 μl 2×SDS sample buffer was added to the column. The column was incubated for 30 minutes at 50° C. and the eluate was transferred to a siliconized microfuge tube by centrifugation. Proteins were then alkylated with 108 mM iodoacetamid. Proteins were then separated by SDS-Polyacrylamide electrophoresis (SDS-PAGE). The peptide extracts of samples treated with 10 μM of free compound (CZC31326) and the solvent control (0.5% DMSO) were treated with different variants of the isobaric tagging reagent (iTRAQ Reagents Multiplex Kit, part number 4352135, Applied Biosystems, Foster City, Calif., USA). The iTRAQ reagents are a set of multiplexed, amine-specific, stable isotope reagents that can label peptides on amino groups in up to four different biological samples enabling simultaneous identification and quantitation of peptides. The iTRAQ reagents were used according to instructions provided by the manufacturer. The samples were resuspended in 10 μl 50 mM TEAB solution, pH 8.5 and 10 μl ethanol were added. The iTRAQ reagent was dissolved in 120 μl ethanol and 10 μl of reagent solution were added to the sample. The labeling reaction was performed at room temperature for one hour on a horizontal shaker and stopped by adding 5 μl of 100 mM TEAB and 100 mM glycine in water. The two labeled sampled were then combined, dried in a vacuum centrifuge and resuspended in 10 μl of 0.1% formic acid in water. Relative protein quantitation was performed using peak areas of iTRAQ reporter ion signals essentially as described in an earlier publication (Bantscheff et al., 2007. Nature Biotechnology 25, 1035-1044).

The target of a further test is HPK1 (Homo sapiens, UniProt Q92918). In words: Kinobeads competition binding, HL60 cell lysate. On the set-up: endogenous in cells; host or cells: HL60. Here is the method: as §1
Sequence of HPK1 (Q92918 whole entry): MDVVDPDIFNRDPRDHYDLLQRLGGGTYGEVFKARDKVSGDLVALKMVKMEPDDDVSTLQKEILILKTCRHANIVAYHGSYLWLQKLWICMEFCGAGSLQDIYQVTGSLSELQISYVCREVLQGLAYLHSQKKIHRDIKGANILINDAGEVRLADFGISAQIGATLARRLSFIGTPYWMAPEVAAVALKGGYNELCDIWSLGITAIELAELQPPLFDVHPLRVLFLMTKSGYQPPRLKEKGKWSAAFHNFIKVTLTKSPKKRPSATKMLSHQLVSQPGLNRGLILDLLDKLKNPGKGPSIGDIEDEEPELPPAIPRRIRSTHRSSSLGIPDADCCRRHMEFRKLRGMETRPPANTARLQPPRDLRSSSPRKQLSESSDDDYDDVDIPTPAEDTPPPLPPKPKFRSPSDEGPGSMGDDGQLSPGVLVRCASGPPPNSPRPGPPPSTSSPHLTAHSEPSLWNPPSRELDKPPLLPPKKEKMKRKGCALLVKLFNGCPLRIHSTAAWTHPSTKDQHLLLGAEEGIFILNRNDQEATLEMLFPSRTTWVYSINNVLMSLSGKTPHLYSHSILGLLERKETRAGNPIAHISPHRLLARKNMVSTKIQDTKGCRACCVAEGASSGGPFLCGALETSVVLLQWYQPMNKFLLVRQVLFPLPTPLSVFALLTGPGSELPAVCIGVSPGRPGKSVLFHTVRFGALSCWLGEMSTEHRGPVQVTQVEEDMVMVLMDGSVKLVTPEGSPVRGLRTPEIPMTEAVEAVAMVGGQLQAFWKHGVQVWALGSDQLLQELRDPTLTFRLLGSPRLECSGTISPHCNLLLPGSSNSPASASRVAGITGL
The target of a further test is JNK1 (Homo sapiens, UniProt P45983). In words: Kinobeads competition binding, HeLa Placenta lysate mix. On the set-up: Identified kinases from HeLa Placenta lysate mix with CZC31326; endogenous in cells; host or cells: HeLa cell lysate mixed with placenta tissue lysate. How it is done:
To one aliquot of cell lysate 10 μM of the free compound (FIG. 3, CZC31326) was added and allowed to bind to proteins in the lysate. Then the affinity matrix with the immobilized compound was added to capture proteins that were not interacting with the previously added free compound. Beads were separated from the lysate and bead bound proteins were eluted in SDS sample buffer and subsequently separated by SDS-Polyacrylamide gel electrophoresis (FIG. 10). Suitable gel bands were cut out and subjected to in-gel proteolytic digestion with trypsin. The second lysate aliquot was processed identically, however no free compound was added (DMSO solvent control). Peptides originating from samples 1 and 2 were labeled with iTRAQ reagents (iTRAQ 114 and iTRAQ 117) and the combined samples were analyzed with a nano-flow liquid chromatography system coupled online to a tandem mass spectrometer (LC-MS/MS) experiment followed by iTRAQ reporter ion quantification in the MS/MS spectra as described in Example 2.

Sequence of JNK1 (P45983 whole entry): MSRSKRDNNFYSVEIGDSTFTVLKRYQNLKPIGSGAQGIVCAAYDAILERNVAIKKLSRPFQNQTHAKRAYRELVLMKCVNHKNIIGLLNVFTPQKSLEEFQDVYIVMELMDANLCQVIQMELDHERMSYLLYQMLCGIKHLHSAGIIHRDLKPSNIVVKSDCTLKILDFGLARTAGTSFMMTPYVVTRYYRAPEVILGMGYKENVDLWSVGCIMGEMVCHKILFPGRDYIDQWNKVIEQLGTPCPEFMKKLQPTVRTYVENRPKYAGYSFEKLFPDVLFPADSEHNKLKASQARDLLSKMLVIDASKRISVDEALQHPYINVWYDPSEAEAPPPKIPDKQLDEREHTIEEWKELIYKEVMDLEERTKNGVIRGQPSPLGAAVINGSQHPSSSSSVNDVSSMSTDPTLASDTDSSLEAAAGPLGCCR

As usually defined, the inhibition is the percentage by which the read-out fell short of the control. Lower therefore signals a response near the control. With `CS(=O)(=O)Nc1ccccc1Nc1nc(Nc2cccc(OCCN)c2)ncc1Cl` [CZC31326, N-(2-(2-(3-(2-aminoethoxy)phenylamino)-5-chloropyrimidin-4-ylamino)phenyl)methanesulfonamide], the inhibition at 10 µM at TAO3 worked out at 98%; on HPK1, 97.7%. Further, on JNK1, the Competition % is reported as 85%.
